The text below walks through data of patent US20030013717A1, “Use of cox-2 inhibitors for constipation” (priority 2000, published 2003).

One assay relates to Beagle dogs. Kind of assay: Dog model of gastric emptying (solid phase, gamma camera). It counts as in vivo. As to conditions: po for three days, measured on fourth day after am dosing; cisapride 0.14 mg/kg TID, celecoxib 2.8 mg/kg BID, 8-acetyl compound 1.2 mg/kg BID; FIG. 3. The procedure: Activity in Vivo: Dog Model of Gastric Emptying
Beagle dogs were treated for three days with test agents (po administration): placebo BID; cisapride 0.14 mg/kg TID; celecoxib 2.8 mg/kg BID; or 8-acetyl-3-(4-fluoro-phenyl)-2-(4-methanesulfonyl-phenyl)-imidazo[1,2-a]pyridine 1.2 mg/kg BID. Solid phase gastric emptying was measured on the fourth day following am dosing. The same three animals were used for evaluation of each agent, thus reducing any interanimal variations.
Isotope-labeled solid food was fed to the dogs for their morning meal and animals were then placed under a gamma camera and scans performed over the 24 to 36 hours.

A further assay concerns dogs. In words: Dog model of lower esophageal sphincter pressure (LESP). As to conditions: 3 days treatment, measured day 4 after am dose; cisapride 0.14 mg/kg TID, celecoxib 1.2 mg/kg BID; compared to placebo; FIG. 4. The format is in vivo. The procedure: Activity in Vivo: Dog Model of Lower Esophageal Sphincter Pressure (LESP) Six adult dogs were instrumented with 14 French esophagostomy tubes. Animals were treated for 3 days with placebo (BID), cisapride (0.14 mg/kg TID) or celecoxib (1.2 mg/kg BID). On day 4 dogs received their am dose of test agent and water perfused manometry catheters were inserted through the esophagostomy tubes. Lower esophageal sphincter pressures (LESPs) were then monitored.

The test system of assay [1] is canine fundic circular muscle. In words: Smooth muscle in vitro model: fundic circular muscle strips, tension change. The following applies: test agent 10 μM; n=6-8 strips; FIG. 2. It counts as cell-based.
Another assay deals with Rats. In words: Rat model of post-operative ileus (methylene blue meal transit). The format is in vivo. As to conditions: 3 mg/kg intravenous infusion; four hours post-gavage; eight rats; p<0.05; vehicle 49.3 cm. The procedure:
Activity in Vivo: Rat Model of Post Perative Ileus
The selective COX-2 inhibitor 2-(4-ethoxy-phenyl)-3-(4-methanesulfonyl-phenyl)-pyrazolo[1,5-b]pyridazine was evaluated in a rat model of post-operative ileus. The methodology represents a modification of the procedure described by McGill et al, Gastroenterology 116: A1040 (1999).
Rats (fourteen) received 0.5 cc of skimmed milk with methylene blue by gavage. Either vehicle (six rats) or 2-(4-ethoxy-phenyl)-3-(4-methanesulfonyl-phenyl)-pyrazolo[1,5-b]pyridazine (eight rats) was then administered by intravenous infusion. Rats were sacrificed four hours post-gavage and the distance the methylene blue meal traversed the intestine measured. The pylorus was set at 0 cm. With vehicle treatment, the meal traversed 49.3+1.3 cm while with 2-(4-ethoxy-phenyl)-3-(4-methanesulfonyl-phenyl)-pyrazolo[1,5-b]pyridazine (3 mg/kg), the meal traversed 67.8±1.1 cm (p<0.05).

Assay [2] relates to canine antrum circular muscles. In words: Smooth muscle in vitro model: antral circular muscle strips, acetylcholine-induced contraction. As to conditions: test agent 10 μM; acetylcholine 1 μM; organ bath, Krebs solution; n=4-8 strips; FIG. 1. The format is cell-based. The procedure:
Smooth Muscle in Vitro Model of Gastric Propulsion
Agents which stimulate antral smooth muscle activity would be expected to enhance the rate of gastric emptying by propulsion of contents in the aboral direction. By contrast, fundic relaxation could lead to delayed emptying of the stomach as the upper stomach would serve as a reservoir for gastric contents.
The effects of test agents were evaluated on strips of canine antrum circular muscles (n=4-8 strips) suspended in organ baths bathed with Krebs solution. Following establishment of baseline tension, acetylcholine (“ACh”; 1 μM), indomethacin (10 μM), or 8-acetyl-3-(4-fluoro-phenyl)-2-(4-methanesulfonyl-phenyl)-imidazo[1,2-a]pyridine (“8-Acetyl- . . . ”; 10 μM) were applied and tension changes monitored and recorded on a polygraph.

As to `COc1cc(N)c(Cl)cc1C(=O)NC1CCN(CCCOc2ccc(F)cc2)CC1OC` (stereo not shown) [Cisapride, cisapride], the “rate of solid phase gastric emptying” value with Beagle dogs is “increased the rate of gastric emptying”. Also, the “lower esophageal sphincter pressure (LESP)” value with dogs is “increased LESP”. Turning to `CC(=O)c1cccn2c(-c3ccc(F)cc3)c(-c3ccc(S(C)(=O)=O)cc3)nc12` [8-acetyl-3-(4-fluoro-phenyl)-2-(4-methanesulfonyl-phenyl)-imidazo[1,2-a]pyridine], the “rate of solid phase gastric emptying” value with Beagle dogs is “increased the rate of gastric emptying”. The “relaxation / tension change of fundic circular muscle” value in assay [1] is reported as “only small changes in tension”. For `CCOc1ccc(-c2nn3ncccc3c2-c2ccc(S(C)(=O)=O)cc2)cc1` [2-(4-ethoxy-phenyl)-3-(4-methanesulfonyl-phenyl)-pyrazolo[1,5-b]pyridazine], the “distance the methylene blue meal traversed the intestine (pylorus = 0 cm)” value in the assay with Rats came out at 67.8±1.1 cm.

`COc1ccc2c(c1)c(CC(=O)O)c(C)n2C(=O)c1ccc(Cl)cc1` [indomethacin]: in assay [2], the “sensitisation of antral circular muscle to acetylcholine-induced contractions” value is given as “enhanced acetylcholine-induced contractions”. The “relaxation / tension change of fundic circular muscle” value in assay [1] was “near complete relaxation”.
